Source: patent US20250059208A1, “KRAS MODULATING COMPOUNDS” (priority 2023, published 2025)

Key:
[1] = biological target: GDP-loaded wild-type KRAS (WT) (Homo sapiens, UniProt P01116); assay: KRAS (GDP) biochemical TR-FRET probe displacement assay, WT; assay type: binding; settings: 2 hours at room temperature
Procedure: (§1) • Compounds were tested for binding to GDP-loaded wild-type KRAS (WT), KRAS-G12C, KRAS-G12D, and KRAS-G12V in a 384-well assay format using a TR-FRET probe displacement assay in buffer consisting of 50 mM Hepes (pH 7.4), 150 mM NaCl. 5 mM MgCl2 and 0.005% Tween-20. 0.03 nM KRAS was used in this assay with 0.02 nM Eu-streptavidin and 12 nM Cy-5 labelled probe. Compounds were serially diluted (1:3) in DMSO. The LabCyte ECHO Acoustic dispenser was used to pre-spot the assay plates (384-well Non-Binding Surface plates, Corning, Catalog #3824) with 50 nL of compound. 5 μL of 2× enzyme concentration was added to the pre-spotted plates and incubated for 30 minutes before adding 5 μL of 2× concentration of Eu-streptavidin and Cy-5 labelled probe (10 μL final reaction volume). The plates were incubated at room temperature for 2 hours before measuring TR-FRET ratio (665 nm/615 nm) on the Envision multimode plate reader. The ratios were normalized to a positive (saturating concentration of known inhibitor) and negative (DMSO) control and plotted against the log of compound concentration. […]

GDP-loaded KRAS-G12C = GDP-loaded KRAS-G12C (Homo sapiens, UniProt P01116, G12C); assay: KRAS (GDP) biochemical TR-FRET probe displacement assay, G12C; assay type: binding; settings: 2 hours at room temperature
GDP-loaded KRAS-G12C, sequence (P01116 1-188 isoform P01116-2 G12C): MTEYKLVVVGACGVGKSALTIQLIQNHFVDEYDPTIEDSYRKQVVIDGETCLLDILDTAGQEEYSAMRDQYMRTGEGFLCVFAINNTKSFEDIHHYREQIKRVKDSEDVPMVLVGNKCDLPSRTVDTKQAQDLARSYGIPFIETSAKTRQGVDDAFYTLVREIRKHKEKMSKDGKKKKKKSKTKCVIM
Procedure: as §1

GDP-loaded KRAS-G12V = GDP-loaded KRAS-G12V (Homo sapiens, UniProt P01116, G12V); assay: KRAS (GDP) biochemical TR-FRET probe displacement assay, G12V; assay type: binding; settings: 2 hours at room temperature
GDP-loaded KRAS-G12V, sequence (P01116 1-188 isoform P01116-2 G12V): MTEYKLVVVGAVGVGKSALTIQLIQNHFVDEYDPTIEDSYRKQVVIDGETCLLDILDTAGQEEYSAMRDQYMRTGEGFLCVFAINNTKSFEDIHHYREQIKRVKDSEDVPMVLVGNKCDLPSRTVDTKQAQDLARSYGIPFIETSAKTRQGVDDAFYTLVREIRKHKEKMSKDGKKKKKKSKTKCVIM
Procedure: as §1

GDP-loaded KRAS-G12D = GDP-loaded KRAS-G12D (Homo sapiens, UniProt P01116, G12D); assay: KRAS (GDP) biochemical TR-FRET probe displacement assay, G12D; assay type: binding; settings: 2 hours at room temperature
GDP-loaded KRAS-G12D, sequence (P01116 1-188 isoform P01116-2 G12D): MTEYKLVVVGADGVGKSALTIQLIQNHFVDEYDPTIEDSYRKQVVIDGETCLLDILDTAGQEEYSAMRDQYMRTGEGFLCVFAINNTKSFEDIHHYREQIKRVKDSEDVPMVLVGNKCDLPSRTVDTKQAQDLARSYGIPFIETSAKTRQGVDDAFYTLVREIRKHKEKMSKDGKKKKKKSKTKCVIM
Procedure: as §1

[2] = tested on: cellular pERK in Kuramochi (WT KRAS) cell-line; assay: Cell based pERK assay, Kuramochi; settings: 2 h, Kuramochi (WT KRAS) cells, 2 hours compound incubation, HTRF Phospho-ERK1/2
Procedure: (§2) Compounds were tested in a 384-well assay format for their ability to inhibit cellular pERK in Kuramochi (WT KRAS), MIA-PaCa-2 (KRAS-G12C), ASPC-1 (KRAS G12D), and NCI-H441 (KRAS-G12V) cell-lines. Compounds were serially diluted (1:3) in DMSO. On day −1, 80 μL of cells were plated per well in the 384 well tissue-culture plates (Greiner: Cat #781080) to seed 5000 cells per wells of AsPC-1 or 7500 cells of MIA-PaCa-2, NCI-H441, and Kuramochi cell lines in RPMI (Corning: Cat #10-040-CM) with 10% fetal bovine serum (FBS) (HyClone: Cat #SH30071-03) and IX penicillin-streptomycin-glutamate (PSG) (Corning: Cat #30-009-C1) for […] and Kuramochi cell lines and DMEM (Corning: Cat #15-018-CM) with 10% FBS and 1×PSG for MIA-PaCa-2 cell line. The plates were then incubated overnight at 37° C. and 5% CO2. On day 0, 400 nL of compound/well was added into the cell plates and mixed 5 times by pipetting using a Beckmann Biomek FX. The cell plates were then incubated for 2 hours at 37° C. and 5% CO2. HTRF Advanced Phospho-ERK1/2 (THR202/TYR204) Detection Kits (PerkinElmer: Cat #64AERPEG) were used to prepare the lysis and detection solution according to manufacturer protocol. Following the 2 hour incubation, 70 μL of medium was aspirated from the plates and 10 μL of lysis and detection solution was added to the plates using a Biotek EL406 washer and dispenser. Plates were sealed and stored overnight at room temperature. HTRF ratio (665 nm/615 nm) was read by Envision multimode reader (PerkinElmer) the next day. The TR-FRET ratios were normalized to a positive (saturating concentration of known inhibitor) and negative (DMSO) control and plotted against the log of compound concentration.

[3] = tested on: cellular pERK in MIA-PaCa-2 (KRAS-G12C) cell-line; assay: Cell based pERK assay, MIA-PaCa-2; settings: Homo sapiens; MIA-PaCa-2 (KRAS-G12C) cells, 2 hours compound incubation, HTRF Phospho-ERK1/2; read-out: MIAPaCa2 pERK EC50
Procedure: as §2

[4] = tested on: cellular pERK in NCI-H441 (KRAS-G12V) cell-line; assay: Cell based pERK assay, NCI-H441; settings: Homo sapiens; NCI-H441 (KRAS-G12V) cells, 2 hours compound incubation, HTRF Phospho-ERK1/2
Procedure: as §2

[5] = tested on: cellular pERK in ASPC-1 (KRAS G12D) cell-line; assay: Cell based pERK assay, ASPC-1; settings: Homo sapiens, ASPC1, 2 h, ASPC-1 (KRAS G12D) cells, 2 hours compound incubation, HTRF Phospho-ERK1/2
Procedure: as §2

GDP-loaded wild-type KRAS (WT), sequence (P01116 1-188 isoform P01116-2): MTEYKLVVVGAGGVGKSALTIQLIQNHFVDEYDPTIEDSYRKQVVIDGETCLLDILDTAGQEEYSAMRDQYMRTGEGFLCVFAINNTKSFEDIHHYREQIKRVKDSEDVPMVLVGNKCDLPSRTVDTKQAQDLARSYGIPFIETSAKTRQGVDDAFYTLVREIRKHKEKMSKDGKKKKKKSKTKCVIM

SMILES	IC50 [1] [nM]	IC50 (GDP-loaded KRAS-G12C) [nM]	IC50 (GDP-loaded KRAS-G12V) [nM]	IC50 (GDP-loaded KRAS-G12D) [nM]	EC50 [2] [nM]	EC50 [3] [nM]	EC50 [4] [nM]	EC50 [5] [nM]
Cc1cc(N)nc(-c2c(F)cc3c(N4CC5(F)CCC(F)(C4)N5)nc(OC[C@@]45CCCN4C[C@H](F)C5)nc3c2F)c1C(F)(F)F [Example 6-1, 6-(4-(1,5-difluoro-3,8-diazabicyclo[3.2.1]octan-3-yl)-6,8-difluoro-2-(((2R,7aS)-2-fluorotetrahydro-1H-pyrrolizin-7a(5H)-yl)methoxy)quinazolin-7-yl)-4-methyl-5-(trifluoromethyl)pyridin-2-amine]	> 100	> 100	> 100	> 100	48.4	350	616	> 1000
Fc1cc2c(N3CC4(F)CCC(F)(C3)N4)nc(OC[C@@]34CCCN3C[C@H](F)C4)nc2c(F)c1-c1csc2ncnc(Cl)c12 [Example 6-2]	> 100	> 100	> 100	> 100	> 1000	> 1000	> 1000	> 1000
Cc1cc(N)nc(-c2c(Cl)cc3c(N4CC5(F)CCC(F)(C4)N5)nc(OC[C@@]45CCCN4C[C@H](F)C5)nc3c2F)c1C(F)(F)F [Example 7-1]	> 89.2	> 100	> 100	> 100	47.5	233	672	> 1000
Nc1cc2ccc(F)cc2c(-c2c(Cl)cc3c(N4CC5(F)CCC(F)(C4)N5)nc(OC[C@@]45CCCN4C[C@H](F)C5)nc3c2F)n1 [Example 7-2]	> 100	> 100	> 100	> 100	524	> 1000	> 1000	> 1000
N#Cc1c(N)sc2c(F)ccc(-c3c(Cl)cc4c(N5CC6(F)CCC(F)(C5)N6)nc(OC[C@@]56CCCN5C[C@H](F)C6)nc4c3F)c12 [Example 7-3]	0.63	1.7	5.09	12.6	5.2	16.8	4.82	39.7
Nc1nc2c(-c3c(Cl)cc4c(N5CC6(F)CCC(F)(C5)N6)nc(OC[C@@]56CCCN5C[C@H](F)C6)nc4c3F)ccc(F)c2s1 [Example 7-4]	14.3	42.5	> 82.3	> 100	13.5	42.8	118	459
C#Cc1c(F)ccc2cc(N)nc(-c3c(Cl)cc4c(N5CC6(F)CCC(F)(C5)N6)nc(OC[C@@]56CCCN5C[C@H](F)C6)nc4c3F)c12 [Example 7-5]	> 100	> 100	> 100	> 100	21.8	179	548	735
